# Tests used:
# [1] = tested on: T84 cells; assay: Intracellular calcium mobilization (Fluo-3 AM, FLIPR) in T84 cells; assay type: cell-based; conditions: T84 human colonic epithelial cell line; FIG. 5
# Excerpt: In addition, the pharmaceutical utility of P2Y agonist compounds of this invention are indicated by the intracellular calcium mobilization assay for P2Y activity. In this assay, cultured cells are stimulated with the increasing concentrations of P2Y receptor agonists. Intracellular calcium levels are monitored by measuring the changes in fluorescence intensity of a calcium-sensitive dye using the FLIPR (Molecular Devices Corp., Sunnyvale, Calif.) or equivalent instrumentation. A conventional technique is used to detect intracellular calcium mobilization induced by P2Y receptor agonists. The technique is familiar to those well versed in the art. Cells are seeded in 96-well plates and used for calcium mobilization assays. On the day of the assay, the growth medium is aspirated and replaced with a solution of Fluo-3 AM (2.5 μM final concentration) in an assay buffer consisting of (mM): KCI (10.0), NaCl (118), CaCl2(2.5), MgCl2 (1.0), HEPES (20), glucose (10), pH 7.4. Probenecid (Sigma Chemical Co.) is added to the dye load and dye wash medium at a working concentration of 2.5mM to increase dye retention in the cells. After a 60 minute incubation with Fluo-3 AM at 25° C., cells are washed free of dye (Columbus Plate Washer, TECAN U.S., Inc., Research Triangle Park, N.C.) and are stimulated with increasing concentrations of P2Y receptor agonists. Intracellular calcium levels are simultaneously monitored in each well by measuring the changes in fluorescence intensity using the FLIPR (Molecular Devices Corp., Sunnyvale, Calif.). T84 cells, a human colonic epithelial cell line, were subjected to the calcium mobilization assay described above. […] The activation of intracellular calcium mobilization by ATP and UTP in T84 and HT-29 cells indicate the pharmaceutical utility of P2Y receptor agonists in the gastrointestinal tract.
# [2] = tested on: HT-29 cells; assay: Intracellular calcium mobilization (Fluo-3 AM, FLIPR) in HT-29 cells; assay type: cell-based; conditions: human colonic HT-29 cells; FIG. 6
# Excerpt: In addition, the pharmaceutical utility of P2Y agonist compounds of this invention are indicated by the intracellular calcium mobilization assay for P2Y activity. In this assay, cultured cells are stimulated with the increasing concentrations of P2Y receptor agonists. Intracellular calcium levels are monitored by measuring the changes in fluorescence intensity of a calcium-sensitive dye using the FLIPR (Molecular Devices Corp., Sunnyvale, Calif.) or equivalent instrumentation. A conventional technique is used to detect intracellular calcium mobilization induced by P2Y receptor agonists. The technique is familiar to those well versed in the art. Cells are seeded in 96-well plates and used for calcium mobilization assays. On the day of the assay, the growth medium is aspirated and replaced with a solution of Fluo-3 AM (2.5 μM final concentration) in an assay buffer consisting of (mM): KCI (10.0), NaCl (118), CaCl2(2.5), MgCl2 (1.0), HEPES (20), glucose (10), pH 7.4. Probenecid (Sigma Chemical Co.) is added to the dye load and dye wash medium at a working concentration of 2.5mM to increase dye retention in the cells. […] Intracellular calcium levels are simultaneously monitored in each well by measuring the changes in fluorescence intensity using the FLIPR (Molecular Devices Corp., Sunnyvale, Calif.). […]
# [3] = tested on: HT-29 cells; conditions: Otero et al. Mol Cell Biochem 2000; cited from earlier work
# [4] = tested on: Goblet cells; conditions: Goblet cells in vitro; Lethem et al. 1993; cited from earlier work
SMILES,calcium mobilization [1],calcium mobilization (P2Y response) [2],calcium mobilization [3],rate and total amount of mucin secretion [4]
"Nc1ncnc2c1ncn2[C@@H]1O[C@H](COP(=O)(O)OP(=O)(O)OP(=O)(O)O)[C@@H](O)[C@H]1O [ATP, 5′-adenosine triphosphate]",stimulate calcium mobilization,robust P2Y response,–,–
"O=c1ccn([C@@H]2O[C@H](COP(=O)(O)OP(=O)(O)OP(=O)(O)O)[C@@H](O)[C@H]2O)c(=O)[nH]1 [UTP, uridine 5′-triphosphate]",stimulate calcium mobilization,robust P2Y response,stimulated calcium mobilization,increase both the rate and total amount of mucin secretion
CSc1nc(N)c2ncn([C@@H]3O[C@H](COP(=O)(O)OP(=O)(O)O)[C@@H](O)[C@H]3O)c2n1 [2-methylthioADP],did not simulate calcium mobilization,–,–,–

# Source: US6624150B2, “Method of treating gastrointestinal tract disease with purinergic receptor agonists” (Inspire Pharmaceuticals, Inc., priority 1999, dated 2003)
